Reference: patent US20260042764A1, “COMPOSITIONS AND METHODS FOR INHIBITION OF KRAS” (TheRas, Inc., priority 2022, published 2026)

What follows are compounds tested against T1, Avi-KRAS G12D (1-169) GppNHp/RAF1 RBD-3xFLAG (52-151) (Homo sapiens, UniProt P01116, G12D) (assay: Raf1-KRAS G12D-GppNHP disruption HTRF assay (Biological Example 1)). Details: KRAS G12D-GppNHp/RAF1 RBD HTRF.
T1 construct: Avi-KRAS G12D (1-169)
T1 sequence (P01116 1-169 isoform P01116-2 G12D): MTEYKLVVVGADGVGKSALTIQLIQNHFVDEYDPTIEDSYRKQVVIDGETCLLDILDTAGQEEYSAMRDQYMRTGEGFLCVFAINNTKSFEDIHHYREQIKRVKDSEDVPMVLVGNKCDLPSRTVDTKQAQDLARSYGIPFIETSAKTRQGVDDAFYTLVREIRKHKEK
Assay type: binding
Outline: (§1)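 Percent activity versus DMSO (100%) was derived from HTRF signal after KRAS–RAF1 RBD protein mix was incubated 1 h at room temperature with shaking and detection reagents were added for a further 1 h.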
`CN(c1nc(OC[C@@]23CCCN2C[C@H](F)C3)nc2c(F)c(-c3ccc(F)c4sc(N)c(C#N)c34)c(C(F)(F)F)cc12)C12CC(CO)(C1)C2` [Compound 351] showed an IC50 of 0.1 to 1 µM. In the case of `Cn1ncc2c1CN(c1nc(OC[C@@]34CCCN3C[C@H](F)C4)nc3c(F)c(-c4ccc(F)c5sc(N)c(C#N)c45)c(C(F)(F)F)cc13)CC2` [Compound 352], the IC50 is reported as 1 to 10 µM. For `CN(C)C(=O)c1cnn2c1CN(c1nc(OC[C@@]34CCCN3C[C@H](F)C4)nc3c(F)c(-c4ccc(F)c5sc(N)c(C#N)c45)c(C(F)(F)F)cc13)CC2` [Compound 353], the IC50 was 0.1 to 1 µM. With `N#Cc1c(N)sc2c(F)ccc(-c3c(C(F)(F)F)cc4c(N5CCc6cn[nH]c6C5)nc(OC[C@@]56CCCN5C[C@H](F)C6)nc4c3F)c12` [Compound 354] the IC50 was 1 to 10 µM. In the case of `CN(C)C(=O)c1nc2n(n1)CCN(c1nc(OC[C@@]34CCCN3C[C@H](F)C4)nc3c(F)c(-c4ccc(F)c5sc(N)c(C#N)c45)c(C(F)(F)F)cc13)C2` [Compound 356], the IC50 is reported as under 0.1 µM. `N#Cc1c(N)sc2c(F)ccc(-c3c(C(F)(F)F)cc4c(N5C6CC5CS(=O)(=O)C6)nc(OC[C@@]56CCCN5C[C@H](F)C6)nc4c3F)c12` [Compound 357] was tested, and the IC50 was 0.1 to 1 µM.

The compounds below were run against T2, Avi-KRAS G12R (1-169) GppNHp/RAF1 RBD-3xFLAG (52-151) (Homo sapiens, UniProt P01116, G12R) (assay: Raf1-KRAS G12R-GppNHP disruption HTRF assay (Biological Example 1)). Details: KRAS G12R-GppNHp/RAF1 RBD HTRF.
T2 construct: Avi-KRAS G12R (1-169)
T2 sequence (P01116 1-169 isoform P01116-2 G12R): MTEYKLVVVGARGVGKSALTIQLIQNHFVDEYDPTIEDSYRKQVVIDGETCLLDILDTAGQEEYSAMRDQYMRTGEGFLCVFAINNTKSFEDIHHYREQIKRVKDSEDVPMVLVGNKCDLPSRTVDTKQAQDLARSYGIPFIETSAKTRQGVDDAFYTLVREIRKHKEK
Assay type: binding
Outline: as §1
In the case of `CN(c1nc(OC[C@@]23CCCN2C[C@H](F)C3)nc2c(F)c(-c3ccc(F)c4sc(N)c(C#N)c34)c(C(F)(F)F)cc12)C12CC(CO)(C1)C2` [Compound 351], the IC50 is reported as 0.1 to 1 µM. Work on `Cn1ncc2c1CN(c1nc(OC[C@@]34CCCN3C[C@H](F)C4)nc3c(F)c(-c4ccc(F)c5sc(N)c(C#N)c45)c(C(F)(F)F)cc13)CC2` [Compound 352] yielded an IC50 of over 10 µM. Work on `CN(C)C(=O)c1cnn2c1CN(c1nc(OC[C@@]34CCCN3C[C@H](F)C4)nc3c(F)c(-c4ccc(F)c5sc(N)c(C#N)c45)c(C(F)(F)F)cc13)CC2` [Compound 353] yielded an IC50 of 1 to 10 µM. With `N#Cc1c(N)sc2c(F)ccc(-c3c(C(F)(F)F)cc4c(N5CCc6cn[nH]c6C5)nc(OC[C@@]56CCCN5C[C@H](F)C6)nc4c3F)c12` [Compound 354] the IC50 was 1 to 10 µM. `CN(C)C(=O)c1nc2n(n1)CCN(c1nc(OC[C@@]34CCCN3C[C@H](F)C4)nc3c(F)c(-c4ccc(F)c5sc(N)c(C#N)c45)c(C(F)(F)F)cc13)C2` [Compound 356] showed an IC50 of 0.1 to 1 µM. In the case of `N#Cc1c(N)sc2c(F)ccc(-c3c(C(F)(F)F)cc4c(N5C6CC5CS(=O)(=O)C6)nc(OC[C@@]56CCCN5C[C@H](F)C6)nc4c3F)c12` [Compound 357], the IC50 is reported as 0.1 to 1 µM.

These compounds were tested on SW620 cells (KRAS G12V) (assay: Cell-based pERK HTRF assay in SW620 cell (Biological Example 4)). Details: Homo sapiens, SW-620, SW620 (KRAS G12V) cells, pERK HTRF.
Outline: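 In SW620 cells grown in RPMI with 10% FBS, a 4 h compound treatment (0.25% DMSO, 9-point curve from 1 μM) preceded lysis. Phospho-ERK levels were then read by time-resolved FRET at 615 nm emission.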
`CN(c1nc(OC[C@@]23CCCN2C[C@H](F)C3)nc2c(F)c(-c3ccc(F)c4sc(N)c(C#N)c34)c(C(F)(F)F)cc12)C12CC(CO)(C1)C2` [Compound 351] gave an IC50 of under 0.1 µM. For `Cn1ncc2c1CN(c1nc(OC[C@@]34CCCN3C[C@H](F)C4)nc3c(F)c(-c4ccc(F)c5sc(N)c(C#N)c45)c(C(F)(F)F)cc13)CC2` [Compound 352], the IC50 was under 0.1 µM. `CN(C)C(=O)c1cnn2c1CN(c1nc(OC[C@@]34CCCN3C[C@H](F)C4)nc3c(F)c(-c4ccc(F)c5sc(N)c(C#N)c45)c(C(F)(F)F)cc13)CC2` [Compound 353] was tested, and the IC50 was under 0.1 µM. `N#Cc1c(N)sc2c(F)ccc(-c3c(C(F)(F)F)cc4c(N5CCc6cn[nH]c6C5)nc(OC[C@@]56CCCN5C[C@H](F)C6)nc4c3F)c12` [Compound 354] showed an IC50 of under 0.1 µM. `CN(C)C(=O)c1nc2n(n1)CCN(c1nc(OC[C@@]34CCCN3C[C@H](F)C4)nc3c(F)c(-c4ccc(F)c5sc(N)c(C#N)c45)c(C(F)(F)F)cc13)C2` [Compound 356] showed an IC50 of under 0.1 µM. With `N#Cc1c(N)sc2c(F)ccc(-c3c(C(F)(F)F)cc4c(N5C6CC5CS(=O)(=O)C6)nc(OC[C@@]56CCCN5C[C@H](F)C6)nc4c3F)c12` [Compound 357] the IC50 was 0.1 to 1 µM.

Each compound was assayed on GP2d cells (KRAS G12D) (assay: Cell-based pERK HTRF assay in GP2d cell (Biological Example 2)). Details: GP2d, GP2d (KRAS G12D) cells, pERK HTRF.
Outline: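 Cells grown in DMEM with 10% FBS were exposed to compound for 60 min at 0.25% DMSO, using a 9-point half-log series starting at 1 μM or 100 nM. Lysates were then mixed with d2 and Eu cryptate antibodies for 4–24 h at room temperature, and pERK was read by HTRF.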
With `CN(c1nc(OC[C@@]23CCCN2C[C@H](F)C3)nc2c(F)c(-c3ccc(F)c4sc(N)c(C#N)c34)c(C(F)(F)F)cc12)C12CC(CO)(C1)C2` [Compound 351] the IC50 was under 0.1 µM. `Cn1ncc2c1CN(c1nc(OC[C@@]34CCCN3C[C@H](F)C4)nc3c(F)c(-c4ccc(F)c5sc(N)c(C#N)c45)c(C(F)(F)F)cc13)CC2` [Compound 352] showed an IC50 of 0.1 to 1 µM. `CN(C)C(=O)c1cnn2c1CN(c1nc(OC[C@@]34CCCN3C[C@H](F)C4)nc3c(F)c(-c4ccc(F)c5sc(N)c(C#N)c45)c(C(F)(F)F)cc13)CC2` [Compound 353] showed an IC50 of under 0.1 µM. Compound `N#Cc1c(N)sc2c(F)ccc(-c3c(C(F)(F)F)cc4c(N5CCc6cn[nH]c6C5)nc(OC[C@@]56CCCN5C[C@H](F)C6)nc4c3F)c12` [Compound 354] has an IC50 of 0.1 to 1 µM. `CN(C)C(=O)c1nc2n(n1)CCN(c1nc(OC[C@@]34CCCN3C[C@H](F)C4)nc3c(F)c(-c4ccc(F)c5sc(N)c(C#N)c45)c(C(F)(F)F)cc13)C2` [Compound 356] was tested, and the IC50 was under 0.1 µM. Work on `N#Cc1c(N)sc2c(F)ccc(-c3c(C(F)(F)F)cc4c(N5C6CC5CS(=O)(=O)C6)nc(OC[C@@]56CCCN5C[C@H](F)C6)nc4c3F)c12` [Compound 357] yielded an IC50 of under 0.1 µM.

These compounds were tested against T3, Avi-KRAS WT (1-169) GppNHp/RAF1 RBD-3xFLAG (52-151) (Homo sapiens, UniProt P01116) (assay: Raf1-KRAS WT-GppNHP disruption HTRF assay (Biological Example 1)). Details: KRAS WT-GppNHp/RAF1 RBD HTRF.
T3 construct: Avi-KRAS WT (1-169)
T3 sequence (P01116 1-169 isoform P01116-2): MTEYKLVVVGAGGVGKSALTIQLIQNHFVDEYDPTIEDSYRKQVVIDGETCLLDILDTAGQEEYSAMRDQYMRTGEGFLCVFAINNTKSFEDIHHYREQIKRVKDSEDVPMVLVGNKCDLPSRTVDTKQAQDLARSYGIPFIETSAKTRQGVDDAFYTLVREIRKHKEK
Assay type: binding
Outline: as §1
For `CN(c1nc(OC[C@@]23CCCN2C[C@H](F)C3)nc2c(F)c(-c3ccc(F)c4sc(N)c(C#N)c34)c(C(F)(F)F)cc12)C12CC(CO)(C1)C2` [Compound 351], the IC50 was 0.1 to 1 µM. `Cn1ncc2c1CN(c1nc(OC[C@@]34CCCN3C[C@H](F)C4)nc3c(F)c(-c4ccc(F)c5sc(N)c(C#N)c45)c(C(F)(F)F)cc13)CC2` [Compound 352] was tested, and the IC50 was over 10 µM. Compound `CN(C)C(=O)c1cnn2c1CN(c1nc(OC[C@@]34CCCN3C[C@H](F)C4)nc3c(F)c(-c4ccc(F)c5sc(N)c(C#N)c45)c(C(F)(F)F)cc13)CC2` [Compound 353] has an IC50 of 1 to 10 µM. For `N#Cc1c(N)sc2c(F)ccc(-c3c(C(F)(F)F)cc4c(N5CCc6cn[nH]c6C5)nc(OC[C@@]56CCCN5C[C@H](F)C6)nc4c3F)c12` [Compound 354], the IC50 was 1 to 10 µM. In the case of `CN(C)C(=O)c1nc2n(n1)CCN(c1nc(OC[C@@]34CCCN3C[C@H](F)C4)nc3c(F)c(-c4ccc(F)c5sc(N)c(C#N)c45)c(C(F)(F)F)cc13)C2` [Compound 356], the IC50 is reported as 0.1 to 1 µM. For `N#Cc1c(N)sc2c(F)ccc(-c3c(C(F)(F)F)cc4c(N5C6CC5CS(=O)(=O)C6)nc(OC[C@@]56CCCN5C[C@H](F)C6)nc4c3F)c12` [Compound 357], the IC50 was 0.1 to 1 µM.

Each compound was assayed against T4, Avi-KRAS G12V (1-169) GppNHp/RAF1 RBD-3xFLAG (52-151) (Homo sapiens, UniProt P01116, G12V) (assay: Raf1-KRAS G12V-GppNHP disruption HTRF assay (Biological Example 1)). Details: KRAS G12V-GppNHp/RAF1 RBD HTRF.
T4 construct: Avi-KRAS G12V (1-169)
T4 sequence (P01116 1-169 isoform P01116-2 G12V): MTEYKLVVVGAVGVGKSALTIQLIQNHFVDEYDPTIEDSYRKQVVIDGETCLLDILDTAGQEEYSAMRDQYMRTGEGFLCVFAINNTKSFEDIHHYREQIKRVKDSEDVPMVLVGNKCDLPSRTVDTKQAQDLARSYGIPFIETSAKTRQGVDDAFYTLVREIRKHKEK
Assay type: binding
Outline: as §1
`CN(c1nc(OC[C@@]23CCCN2C[C@H](F)C3)nc2c(F)c(-c3ccc(F)c4sc(N)c(C#N)c34)c(C(F)(F)F)cc12)C12CC(CO)(C1)C2` [Compound 351] was tested, and the IC50 was 1 to 10 µM. `Cn1ncc2c1CN(c1nc(OC[C@@]34CCCN3C[C@H](F)C4)nc3c(F)c(-c4ccc(F)c5sc(N)c(C#N)c45)c(C(F)(F)F)cc13)CC2` [Compound 352] was tested, and the IC50 was over 10 µM. `CN(C)C(=O)c1cnn2c1CN(c1nc(OC[C@@]34CCCN3C[C@H](F)C4)nc3c(F)c(-c4ccc(F)c5sc(N)c(C#N)c45)c(C(F)(F)F)cc13)CC2` [Compound 353] was tested, and the IC50 was 1 to 10 µM. For `N#Cc1c(N)sc2c(F)ccc(-c3c(C(F)(F)F)cc4c(N5CCc6cn[nH]c6C5)nc(OC[C@@]56CCCN5C[C@H](F)C6)nc4c3F)c12` [Compound 354], the IC50 was over 10 µM. Work on `CN(C)C(=O)c1nc2n(n1)CCN(c1nc(OC[C@@]34CCCN3C[C@H](F)C4)nc3c(F)c(-c4ccc(F)c5sc(N)c(C#N)c45)c(C(F)(F)F)cc13)C2` [Compound 356] yielded an IC50 of 0.1 to 1 µM. In the case of `N#Cc1c(N)sc2c(F)ccc(-c3c(C(F)(F)F)cc4c(N5C6CC5CS(=O)(=O)C6)nc(OC[C@@]56CCCN5C[C@H](F)C6)nc4c3F)c12` [Compound 357], the IC50 is reported as 1 to 10 µM.
